Patent US20220380347A1, “INHIBITORS OF CYSTEINE PROTEASES AND METHODS OF USE THEREOF” (Pardes Biosciences, Inc., priority 2020, published 2022)
pEC50, pIC50: −log10 of the molar value. Read-outs that look alike come from different tables or passages of the source.

Experiments:
[1] = target: COVID-19 (nCoV-2019, SARS-CoV2) Mpro (Severe acute respiratory syndrome coronavirus 2, UniProt P0DTD1); test: COVID-19 (nCoV-2019, SARS-CoV2) Mpro enzymatic assay; assay type: biochemical; details: 25 nM Mpro, 25 μM substrate; read-out: COVID-19 Mpro IC50
HCoV 229E = HCoV 229E cytopathic effect (CPE) assay, CellTiter Glo; assay type: cell-based, human coronavirus (HCov) 229E; details: protection of virus-induced CPE
Procedure: Example 238: Evaluation of antiviral activity of compounds against human coronavirus (HCov) 229E and OC43 in the cytopathic effect (CPE) assays
Compounds were assayed using standard methods against multiple coronaviral strains, including HCoV 229E and OC43 strains. The antiviral activity of compounds was calculated based on the protection of the virus-induced CPE at each concentration normalized by the virus control.
Cytopathic effect (CPE) was measured by CellTiter Glo following the manufacturer's manual. The antiviral activity of compounds was calculated based on the protection of the virus-induced CPE at each concentration normalized by the virus control.
Cell viability was measured with CellTiter Glo.

229E Mpro = 229E Mpro (Human coronavirus 229E, UniProt P0C6X1); test: 229E Mpro enzymatic assay (standard methods, SARS-CoV2 Mpro assay given as exemplary); assay type: biochemical, human coronavirus (HCov) 229E
229E Mpro, sequence (P0C6X1 2966-3267): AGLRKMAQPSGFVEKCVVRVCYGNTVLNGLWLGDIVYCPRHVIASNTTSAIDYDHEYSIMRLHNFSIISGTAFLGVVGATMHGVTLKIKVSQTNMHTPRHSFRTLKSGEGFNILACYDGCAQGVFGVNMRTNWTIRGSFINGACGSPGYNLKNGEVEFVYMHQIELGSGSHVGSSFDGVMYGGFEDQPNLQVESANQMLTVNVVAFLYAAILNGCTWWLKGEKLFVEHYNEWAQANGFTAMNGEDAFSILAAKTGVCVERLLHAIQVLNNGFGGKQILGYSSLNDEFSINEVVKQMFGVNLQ
Procedure, shortened: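 IC50 for 229E Mpro by standard methods; exemplary SARS-CoV-2 protocol used C-His6-tagged Mpro from E. coli, 25 nM enzyme, 25 μM substrate (Km 13.5 μM), in Tris-HCl pH 7.3, NaCl, EDTA, TCEP, 0.1% BSA. Inhibition normalised to no-compound and full-effect controls; four-parameter fit.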

HCov OC43 = test: HCoV OC43 cytopathic effect (CPE) assay, CellTiter Glo; assay type: cell-based, human coronavirus (HCov) OC43
[2] = Betacoronavirus 1, OC43, read-out: OC43 IC50 (uM) MEDIAN, median
[3] = read-out: OC43 IC50 (uM) MEDIAN, median

SMILES | pIC50 [1] | pEC50 (HCoV 229E; unidentified human coronavirus) | pEC50 (229E Mpro; 229E Mpro EC50) | IC50 (HCov OC43; [2]) [µM] | IC50 (HCov OC43; [3]) [µM] | also measured
CN1CCN(C(=O)C(c2cccnc2)N(C(=O)[C@H]2CCCN2C#N)c2ccc(C(C)(C)C)cc2)CC1 (mixture of isomers) [Compound 967, (2R)—N-(4-(tert-butyl)phenyl)-1-cyano-N-(2-(4-methylpiperazin-1-yl)-2-oxo-1-(pyridin-3-yl)ethyl)pyrrolidine-2-carboxamide] | 5.00 to 5.70 | 5.00 to 5.70 | > 5.70 | 2 to 10 |  | 
CC(C)(C)c1ccc(N(C(=O)[C@H]2C[C@@H](Oc3ccccc3)CN2C#N)C(C(=O)NC2CCCCC2)c2cccnc2)cc1 (single isomer, unassigned) [307 Isomer 1] | > 5.70 | > 5.70 | > 5.70 | < 2 |  | 
CC(C)(C)c1ccc(N(C(=O)[C@H]2C[C@@H](O)CN2C#N)C(C(=O)NCCN2CCOCC2)c2cccnc2)cc1 (single isomer, unassigned) [587 Isomer 1] | > 5.70 | > 5.70 | > 5.70 | < 2 |  | 
CC(C)(C)c1ccc(N(C(=O)[C@H]2C[C@@H](O)CN2C#N)C(C(=O)NCCN2CCOCC2)c2cccnc2)cc1 (single isomer, unassigned) [587 Isomer 2] | 5.00 to 5.70 |  |  |  | 2 to 10 | pEC50 (HCoV 229E): 5.00 to 5.70; pEC50 (229E Mpro; read-out: 229E Mpro EC50): > 5.70
CC(C)(C)c1ccc(N(C(=O)[C@H]2C[C@@H](O)CN2C#N)C(C(=O)NC2CCCC2)c2cccnc2)cc1 (single isomer, unassigned) [595 Isomer 1] | 5.00 to 5.70 | 5.00 to 5.70 | > 5.70 | 2 to 10 |  | 
CC(C)(C)c1ccc(N(C(=O)[C@H]2C[C@@H](O)CN2C#N)C(C(=O)NC2CCOCC2)c2cccnc2)cc1 (single isomer, unassigned) [619 Isomer 1] | > 5.70 | 5.00 to 5.70 | > 5.70 | < 2 |  | 
CC(C)(C)c1ccc(N(C(=O)[C@H]2C[C@@H](O)CN2C#N)C(C(=O)NC2CCOCC2)c2cccnc2)cc1 (single isomer, unassigned) [619 Isomer 2] | 5.00 to 5.70 |  |  |  | 2 to 10 | pEC50 (HCoV 229E): > 5.70; pEC50 (229E Mpro; read-out: 229E Mpro EC50): > 5.70
COCCNC(=O)C(c1cccnc1)N(C(=O)[C@H]1C[C@@H](O)CN1C#N)c1ccc(C(C)(C)C)cc1 (single isomer, unassigned) [627 Isomer 1] | > 5.70 | 5.00 to 5.70 | > 5.70 |  | < 2 | 
COCCNC(=O)C(c1cccnc1)N(C(=O)[C@H]1C[C@@H](O)CN1C#N)c1ccc(C(C)(C)C)cc1 (single isomer, unassigned) [627 Isomer 2] | 5.00 to 5.70 |  |  |  | 10 to 30 | pEC50 (HCoV 229E): 5.00 to 5.70; pEC50 (229E Mpro; read-out: 229E Mpro EC50): > 5.70
COCCCNC(=O)C(c1cccnc1)N(C(=O)[C@H]1C[C@@H](O)CN1C#N)c1ccc(C(C)(C)C)cc1 (single isomer, unassigned) [647 Isomer 2] | > 5.70 | 5.00 to 5.70 |  |  | 2 to 10 | pEC50 (229E Mpro; read-out: 229E Mpro EC50): > 5.70
Cn1cnnc1C(C(=O)NC1CCCCC1)N(C(=O)[C@H]1C[C@@H](O)CN1C#N)c1ccc(C(C)(C)C)cc1 (single isomer, unassigned) [659 Isomer 1] | 5.00 to 5.70 | > 5.70 | > 5.70 |  | 10 to 30 | 
Cn1cnnc1C(C(=O)NC1CCCCC1)N(C(=O)[C@H]1C[C@@H](O)CN1C#N)c1ccc(C(C)(C)C)cc1 (single isomer, unassigned) [659 Isomer 2] | 5.00 to 5.70 |  |  |  | 2 to 10 | pEC50 (HCoV 229E): 5.00 to 5.70; pEC50 (229E Mpro; read-out: 229E Mpro EC50): > 5.70
N#CN1C[C@H](O)C[C@@H]1C(=O)N(c1ccc(C2CC2)cc1)C(C(=O)NC1CCCCC1)c1cccnc1 (single isomer, unassigned) [723 Isomer 1] | > 5.70 | > 5.70 | > 5.70 | < 2 |  | 
N#CN1C[C@H](O)C[C@@H]1C(=O)N(c1ccc(C2CC2)cc1)C(C(=O)NC1CCCCC1)c1cccnc1 (single isomer, unassigned) [723 Isomer 2] | 4.52 to 5.00 |  | 5.00 to 5.70 |  | 2 to 10 | pEC50 (HCoV 229E): 5.00 to 5.70
CC(C)(C)c1ccc(N(C(=O)[C@H]2CC(=O)CN2C#N)C(C(=O)NC2CCCCC2)c2cccnc2)cc1 (single isomer, unassigned) [Compound 278 Isomer 2] | 5.00 to 5.70 | 5.00 to 5.70 |  |  | 10 to 30 | pEC50 (229E Mpro; read-out: 229E Mpro EC50): > 5.70
CC1(O)C[C@H](C(=O)N(c2ccc(C(C)(C)C)cc2)C(C(=O)NC2CCCCC2)c2cccnc2)N(C#N)C1 (single isomer, unassigned) [Compound 284 Isomer 2] | > 5.70 | > 5.70 | > 5.70 |  |  | IC50 (HCov OC43; read-out: OC43 IC50 (uM) MEDIAN, median, listed as 284 Isomer 2): < 2 µM
CO[C@@H]1C[C@H](C(=O)N(c2ccc(C(C)(C)C)cc2)C(C(=O)NC2CCCCC2)c2cccnc2)N(C#N)C1 (single isomer, unassigned) [Compound 292 Isomer 2] | > 5.70 | > 5.70 |  |  | < 2 | pEC50 (229E Mpro; read-out: 229E Mpro EC50): > 5.70
CO[C@H]1C[C@H](C(=O)N(c2ccc(C(C)(C)C)cc2)C(C(=O)NC2CCCCC2)c2cccnc2)N(C#N)C1 (single isomer, unassigned) [Compound 293 Isomer 1] | > 5.70 | > 5.70 | > 5.70 |  |  | IC50 (HCov OC43; read-out: OC43 IC50 (uM) MEDIAN, median, listed as 293 Isomer 1): < 2 µM
CC(C)(C)O[C@@H]1C[C@H](C(=O)N(c2ccc(C(C)(C)C)cc2)C(C(=O)NC2CCCCC2)c2cccnc2)N(C#N)C1 (single isomer, unassigned) [Compound 299 Isomer 2] | > 5.70 | > 5.70 | > 5.70 |  |  | IC50 (HCov OC43; read-out: OC43 IC50 (uM) MEDIAN, median, listed as 299 Isomer 2): 2 to 10 µM
CC(C)(C)c1ccc(N(C(=O)[C@H]2C[C@H](Oc3ccccc3)CN2C#N)C(C(=O)NC2CCCCC2)c2cccnc2)cc1 (single isomer, unassigned) [Compound 308 Isomer 2] | > 5.70 | > 5.70 | > 5.70 |  | > 30 | 
CC(C)(C)c1ccc(N(C(=O)[C@H]2CCCN2C#N)C(C(=O)NCC2COC2)c2cccnc2)cc1 (single isomer, unassigned) [Compound 419 Isomer 1] | > 5.70 | 5.00 to 5.70 | > 5.70 | 2 to 10 |  | 
COC(C)(C)CNC(=O)C(c1cccnc1)N(C(=O)[C@H]1CCCN1C#N)c1ccc(C(C)(C)C)cc1 (single isomer, unassigned) [Compound 427 Isomer 2] | > 5.70 | > 5.70 | > 5.70 |  |  | IC50 (HCov OC43; read-out: OC43 IC50 (uM) MEDIAN, median, listed as 427 Isomer 2): 2 to 10 µM
CN(C)CCNC(=O)C(c1cccnc1)N(C(=O)[C@H]1CCCN1C#N)c1ccc(C(C)(C)C)cc1 (single isomer, unassigned) [Compound 435 Isomer 1] | 5.00 to 5.70 | 5.00 to 5.70 | > 5.70 |  |  | IC50 (HCov OC43; read-out: OC43 IC50 (uM) MEDIAN, median, listed as 435 Isomer 1): 2 to 10 µM
Cc1c[nH]c2cc(N(C(=O)[C@H]3C[C@@H](O)CN3C#N)C(C(=O)NC3CCC(F)(F)CC3)c3cncc(F)c3)ccc12 (single isomer, unassigned) [Compound 747b Isomer 1] | > 5.70 | 5.00 to 5.70 | > 5.70 | < 2 |  | 
CC1(C(=O)N(c2ccc(C(C)(C)C)cc2)C(C(=O)NC2CCCCC2)c2cccnc2)CN(C#N)C1 (stereo not drawn) [Compound 128, N-(4-tert-butylphenyl)-1-cyano-N-[2-(cyclohexylamino)-2-oxo-1-(3-pyridyl)ethyl]-3-methyl-azetidine-3-carboxamide] | 4.52 to 5.00 | 5.00 to 5.70 | 5.00 to 5.70 |  |  | 
